Laboratory results: patent US11034696B2, “Compounds for inhibiting LRRK2 kinase activity” (GLAXOSMITHKLINE INTELLECTUAL PROPERTY DEVELOPMENT LIMITED, priority 2017, dated 2021)
Where “and” joins values, the source holds several entries; their conditions need not be identical. Equal entries are not always repeated.

Each compound was assayed against T1, LRRK2 (Homo sapiens, UniProt Q5S007) (assay: Recombinant cellular LRRK2 AlphaScreen assay (LRRK2 Ser935 phosphorylation in SH-SY5Y cells over-expressing recombinant full length LRRK2)). Conditions: 60 minutes compound incubation, read-out: pIC50 in the recombinant cellular LRRK2 AlphaScreen assay (converted).
T1 construct: A BacMam virus expressing full length recombinant LRRK2 was purchased from Invitrogen; host or cells: SH-SY5Y human neuroblastoma cells transduced with BacMam LRRK2 virus
T1 sequence (Q5S007 whole entry): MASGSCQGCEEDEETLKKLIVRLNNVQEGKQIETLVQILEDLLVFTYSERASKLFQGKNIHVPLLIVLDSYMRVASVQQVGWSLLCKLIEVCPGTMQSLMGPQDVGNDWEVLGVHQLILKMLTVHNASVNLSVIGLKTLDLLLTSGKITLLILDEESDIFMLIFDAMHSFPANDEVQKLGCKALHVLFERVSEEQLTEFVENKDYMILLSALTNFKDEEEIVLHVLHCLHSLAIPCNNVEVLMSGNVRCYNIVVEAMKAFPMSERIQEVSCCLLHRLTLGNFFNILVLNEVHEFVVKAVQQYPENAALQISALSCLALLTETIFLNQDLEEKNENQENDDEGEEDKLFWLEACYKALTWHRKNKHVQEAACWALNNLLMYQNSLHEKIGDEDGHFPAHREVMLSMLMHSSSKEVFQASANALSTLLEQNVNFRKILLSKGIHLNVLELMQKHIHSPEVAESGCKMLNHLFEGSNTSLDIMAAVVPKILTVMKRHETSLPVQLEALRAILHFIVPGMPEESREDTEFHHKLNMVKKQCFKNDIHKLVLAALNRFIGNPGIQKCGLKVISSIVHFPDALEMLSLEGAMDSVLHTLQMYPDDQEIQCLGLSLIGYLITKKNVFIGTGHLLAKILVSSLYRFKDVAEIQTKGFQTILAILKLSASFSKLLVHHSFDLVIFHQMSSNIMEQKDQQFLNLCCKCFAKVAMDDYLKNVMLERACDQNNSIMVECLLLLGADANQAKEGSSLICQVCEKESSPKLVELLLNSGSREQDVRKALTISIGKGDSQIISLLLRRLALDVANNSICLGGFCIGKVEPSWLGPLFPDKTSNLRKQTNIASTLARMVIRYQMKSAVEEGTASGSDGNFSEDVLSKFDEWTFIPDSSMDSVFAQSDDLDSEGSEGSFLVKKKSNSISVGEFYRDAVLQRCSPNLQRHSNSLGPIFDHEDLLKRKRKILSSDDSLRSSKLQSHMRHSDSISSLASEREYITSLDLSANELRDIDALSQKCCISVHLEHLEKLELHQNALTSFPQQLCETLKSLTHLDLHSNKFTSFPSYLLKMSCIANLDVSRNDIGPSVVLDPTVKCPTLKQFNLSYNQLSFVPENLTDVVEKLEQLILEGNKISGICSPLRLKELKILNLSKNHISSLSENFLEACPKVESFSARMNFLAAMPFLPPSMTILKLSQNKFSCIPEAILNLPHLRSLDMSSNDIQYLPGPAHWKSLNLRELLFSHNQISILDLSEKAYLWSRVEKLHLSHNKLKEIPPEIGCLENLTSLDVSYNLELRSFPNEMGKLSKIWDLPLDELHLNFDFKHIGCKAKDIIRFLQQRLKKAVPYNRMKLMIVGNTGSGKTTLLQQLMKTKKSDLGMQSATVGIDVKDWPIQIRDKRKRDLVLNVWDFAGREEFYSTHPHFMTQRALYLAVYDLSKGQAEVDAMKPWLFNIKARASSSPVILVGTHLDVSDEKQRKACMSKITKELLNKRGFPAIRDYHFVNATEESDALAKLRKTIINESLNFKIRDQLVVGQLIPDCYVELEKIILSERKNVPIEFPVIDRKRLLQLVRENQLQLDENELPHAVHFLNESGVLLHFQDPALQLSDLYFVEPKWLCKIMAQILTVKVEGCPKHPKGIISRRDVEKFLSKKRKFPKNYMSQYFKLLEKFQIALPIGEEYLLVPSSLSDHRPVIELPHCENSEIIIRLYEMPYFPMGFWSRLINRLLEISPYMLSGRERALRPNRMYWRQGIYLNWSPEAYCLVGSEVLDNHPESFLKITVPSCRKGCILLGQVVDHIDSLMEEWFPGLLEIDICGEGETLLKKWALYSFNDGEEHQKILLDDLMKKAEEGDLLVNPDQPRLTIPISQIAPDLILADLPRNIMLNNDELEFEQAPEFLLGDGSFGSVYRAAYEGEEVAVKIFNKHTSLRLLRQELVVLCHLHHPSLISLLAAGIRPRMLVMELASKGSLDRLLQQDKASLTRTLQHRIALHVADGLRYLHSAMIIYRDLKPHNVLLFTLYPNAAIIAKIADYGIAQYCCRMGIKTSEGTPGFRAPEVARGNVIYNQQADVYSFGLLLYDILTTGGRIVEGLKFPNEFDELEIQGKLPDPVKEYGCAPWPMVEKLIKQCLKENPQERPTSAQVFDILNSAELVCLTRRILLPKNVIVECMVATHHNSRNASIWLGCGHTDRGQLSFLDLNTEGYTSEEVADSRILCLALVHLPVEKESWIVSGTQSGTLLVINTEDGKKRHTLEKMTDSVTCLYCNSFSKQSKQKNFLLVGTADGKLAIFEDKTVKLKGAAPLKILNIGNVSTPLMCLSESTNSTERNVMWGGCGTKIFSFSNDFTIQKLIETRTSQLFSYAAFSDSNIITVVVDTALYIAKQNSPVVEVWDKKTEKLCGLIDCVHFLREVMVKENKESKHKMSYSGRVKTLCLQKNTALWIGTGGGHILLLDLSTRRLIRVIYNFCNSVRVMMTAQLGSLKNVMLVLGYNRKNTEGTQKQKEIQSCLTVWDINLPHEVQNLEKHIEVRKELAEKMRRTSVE
Format: cell-based
Excerpt: 2) Recombinant Cellular LRRK2 AlphaScreen Assay
To determine the activity of compounds against LRRK2 kinase activity in cells, the observed LRRK2 kinase-dependent modulation of LRRK2 Ser 935 phosphorylation (Dzamko et al., 2010, Biochem. J. 430: 405-413) was utilized to develop a quantitative 384 well plate-based immunoassay of LRRK2 Ser935 phosphorylation in the human neuroblastoma cell line SH-SY5Y, engineered to over-express recombinant full length LRRK2 protein.
A BacMam virus expressing full length recombinant LRRK2 was purchased from Invitrogen and amplified by inoculation of SF-9 cells at MOI 0.3 for 4-5 days in Sf-900 III SFM medium supplemented with 3% fetal bovine serum. Infected cell cultures were then centrifuged at 2000 g for 20 minutes, viral supernatant titer determined by anti-gp64 plaque assay and stored at 4° C.
Affinity-purified anti-phospho LRRK2 Ser935 sheep polyclonal antibody (Dzamko et al., 2010, Biochem. J. 430: 405-413) was biotinylated by standard methods (PerkinElmer). Anti-LRRK2 rabbit polyclonal antibody was purchased from Novus Biologicals. AlphaScreen Protein A IgG Kit (including acceptor and donor beads) was purchased from Perkin Elmer. […]
Serial dilutions of test compounds were prepared in Opti-MEM reduced serum media (Invitrogen) and 5.6 ul transferred from compound plate to cell assay plate to achieve a top final assay concentration of 10 uM. […] 10 ul of antibody/acceptor bead mix [(1/1000 biotinylated-pS935 LRRK2 antibody, 1/1000 total-LRRK2 antibody, 1/100 Acceptor beads in AlphaScreen detection buffer (25 mM Hepes (pH 7.4), 0.5% Triton X-100, 1 mg/ml Dextran 500 and 0.1% BSA)] was then added to each well and plates incubated for 2 hours at ambient temperature in the dark. 10 μl of donor beads solution (1/33.3 donor beads in AlphaScreen detection buffer) was then added to each well. Following incubation for a further 2 hours at ambient temperature in the dark, plates were read on an EnVision™ plate reader at emission 520-620 nm with excitation 680 nm. […]
`COc1nc(N2CCN3CCC[C@@H]3C2)cc(-n2ncc3cc(C)c(C4CCN(C5COC5)CC4F)cc32)n1` (single isomer, unassigned) [Example A-1] gave an IC50 of no more than 0.1 µM. `COc1nc(N2CCN3CCC[C@H]3C2)cc(-n2ncc3cc(C)c(C4CCN(C5COC5)CC4F)cc32)n1` (single isomer, unassigned) [Example A-2] showed an IC50 of no more than 0.1 µM. For `COc1nc(N2CCN3CCOCC3C2)cc(-n2ncc3cc(C)c(C4CCN(C5COC5)CC4)cc32)n1` (single isomer, unassigned) [Example A-13, 8-(2-methoxy-6-(5-methyl-6-(1-(oxetan-3-yl)piperidin-4-yl)-1H-indazol-1-yl)pyrimidin-4-yl)octahydropyrazino[2,1-c][1,4]oxazine], the IC50 was 0.00794 µM and ≤ 0.1 µM.
